Experiments:
[1] = system: GP IIb/IIIa; test: Whole blood flow cytometry; assay type: cell-based, human; settings: for GP IIb/IIIa (mean) log fluorescence intensity / GP IIb/IIIa (peak) log fluorescence intensity: Whole Blood; for GPIIb/IIIa expression (FIG. 1), in words: sertraline 18.1, 44.7 or 85.3 ng/ml, NDMS 31.1, 64.1, 143.0 ng/ml; for GPIIb/IIIa expression (FIG. 7), in words: whole blood, post-coronary angioplasty patient, increasing concentrations
Text: For ex vivo assessment of the SSRIs effect on a PAM, a level of a PAM can be assessed by flow cytometry by first obtaining a sample that comprises platelets and then contacting the sample with a platelet activation agonist, such as phorbol myristate acetate (PMA), ADP (adenosine diphosphate), thrombin, collagen, and/or TRAP (thrombin receptor activating peptide), under conditions suitable for activation of platelets in the sample. The sample is in contact with the agonist preferably for a period of time effective to maximally activate the platelets. […] Then one contacts or stains the samples with a composition that comprises an anti-PAM antibody e.g., having a fluorescent label, preferably in an amount in excess of that required to bind the PAM expressed on the platelets, under conditions suitable for the formation of labeled complexes between the anti-PAM antibody and activated platelets. Then the formation of the complex in the sample is determined (detected or measured).
Four cc of blood was collected in a tube, containing 2 cc of acid-citrate-dextrose (ACD) (7.3 g citric acid, 22.0 g sodium citrate×2H2O and 24.5 glucose in a total amount of 1000 mL distilled water) and mixed well. The buffer, TBS (10 mM Tris, 0.15 M NaCl, pH 7.4) and the following fluorescein isothiocyanate (FITC) conjugated monoclonal antibodies (PharMingen, San Diego, Calif. USA, and DAKO, Calif., USA) were removed from a refrigerator and allowed to warm at room temperature (RT): CD41 (IIb/IIIa), CD31 (PECAM-1), CD62p (P-selectin), CD51/61 (Vitronectin receptor). Six amber tubes (1.25 ml) were obtained and marked. One Eppendorf tube (1.5 ml) was labeled with “Dill WB”, Patient ID #, Initial and Date. The amber tubes and Eppendorf tube were placed in the rack. […] of TBS buffer was pipetted to the labeled Eppendorf tube. The patient's whole blood tube was inverted gently twice to mix. 50 μl of whole blood was pipetted to the “Dill WB” labeled Eppendorf tube. The Eppendorf tube was capped and the diluted whole blood was mixed by inverting the Eppendorf tube gently two times 50 μl of diluted whole blood was pipetted to each amber tube. 5 μl of appropriate antibody was pipetted to the bottom of the corresponding amber tube. The tubes were covered with aluminum foil and incubated at 4° C. for 30 minutes. After incubation, 400 μl of 2% buffered paraformaldehyde was added. To prepare 2% Paraformaldehyde:Dilute 1 part 10% paraformaldehyde with 4 parts TBS. This solution was stored at 4° C. for up to one week. The amber tubes were closed with a lid tightly and stored in a refrigerator at 4° C. until the flow cytometric analysis. The samples are analyzed on a Becton Dickinson FACScan flow cytometer. The instrument is set up to measure forward light scatter (FSC), and FITC fluorescence. All parameters are collected using four decade logarithmic amplification.
The data in table 1 was obtained using the methods described herein, and in particular, in Examples 1 and 2. The levels of various PAMs were assess from samples of human volunteers. […] Baseline levels of the PAMs were also obtained (without exposure to sertraline or NDMS).

[2] = system: platelets; test: Platelet aggregation in platelet rich plasma (ADP or collagen); assay type: cell-based, human; settings: for platelet aggregation in PRP (FIGS. 5 and 6), in words: post-coronary angioplasty patient, activated with ADP or collagen
Protocol: Trisodium citrate (3.8%) and whole blood is immediately mixed in a 1:9 ratio, and then centrifuged at 1200 g for 2.5 minutes, to obtain platelet-rich plasma (PRP), which is kept at room temperature for use within 1 hour for platelet aggregation studies. Platelet count is determined in each PRP sample with a Coulter Counter ZM (Coulter Co., Hialeah, Fla.). Platelet numbers are adjusted to 3.50×10^8/ml for aggregation with homologous platelet-poor plasma. PRP and whole blood aggregation tests are performed simultaneously. Whole blood is diluted 1.1 with the 0.5 ml PBS, and then swirled gently to mix . The cuvette with the stirring bar is placed in the incubation well and allowed to warm to 37° C. for 5 minutes. Then the sample are transferred to the assay well. An electrode is placed in the sample cuvette. Platelet aggregation is stimulated with 5 μM ADP, 1 μg/ml collagen, and 0.75 mM arachidonic acid. All agonists are obtained from Chronolog Corporation (Hawertown, Pa.). Platelet aggregation studies are performed using a Chrono-Log Whole Blood Lumi-Aggregometer (model 560 -Ca). Platelet aggregability are expressed as the percentage of light transmittance change from baseline using platelet-poor plasma as a reference at the end of recording time for plasma samples, or as a change in electrical impedance for whole blood samples. Aggregation curves are recorded for 4 minutes and analyzed according to internationally established standards using Aggrolinkg® software.

[3] = healthy volunteers, desmethylsertraline 31.1 ng/ml
[4] = healthy volunteers, desmethylsertraline 64.2 ng/ml
[5] = healthy volunteers, desmethylsertraline 143 ng/ml
[6] = post-angioplasty patient on aspirin, desmethylsertraline 31.1 ng/ml
[7] = post-angioplasty patient on aspirin, desmethylsertraline 64.2 ng/ml
[8] = post-angioplasty patient on aspirin, desmethylsertraline 143 ng/ml
[9] = whole blood from a healthy volunteer
[10] = healthy volunteers, sertraline 18.1 ng/ml
[11] = healthy volunteers, sertraline 44.7 ng/ml
[12] = healthy volunteers, sertraline 85.3 ng/ml
[13] = post-angioplasty patient on aspirin, sertraline 18.1 ng/ml
[14] = post-angioplasty patient on aspirin, sertraline 44.7 ng/ml
[15] = post-angioplasty patient on aspirin, sertraline 85.3 ng/ml

N[C@H]1CC[C@@H](c2ccc(Cl)c(Cl)c2)c2ccccc21 [Desmethyl sertraline, N-desmethylsertraline]
GP IIb/IIIa (mean) log fluorescence intensity [1, 3]: 346 | GP IIb/IIIa (peak) log fluorescence intensity [1, 3]: 340 | GP IIb/IIIa (mean) log fluorescence intensity [1, 4]: 403 | GP IIb/IIIa (peak) log fluorescence intensity [1, 4]: 355 | GP IIb/IIIa (mean) log fluorescence intensity [1, 5]: 314 | GP IIb/IIIa (peak) log fluorescence intensity [1, 5]: 264 | GP IIb/IIIa (mean) log fluorescence intensity [1, 6]: 277 | GP IIb/IIIa (peak) log fluorescence intensity [1, 6]: 268 | GP IIb/IIIa (mean) log fluorescence intensity [1, 7]: 219 | GP IIb/IIIa (peak) log fluorescence intensity [1, 7]: 245 | GP IIb/IIIa (mean) log fluorescence intensity [1, 8]: 242 | GP IIb/IIIa (peak) log fluorescence intensity [1, 8]: 232 | GPIIb/IIIa expression, NDMS compared with sertraline (FIG. 1) [1, 9]: more effectively decreased the expression of GPIIb/IIIa | GPIIb/IIIa expression (FIG. 1), in words [1, 9]: dose dependent decrease in the expression | GPIIb/IIIa expression (FIG. 7), in words [1]: striking decreases in expression | platelet aggregation in PRP (FIGS. 5 and 6), in words ([2]; PRP): decrease in platelet aggregation

CN[C@H]1CC[C@@H](c2ccc(Cl)c(Cl)c2)c2ccccc21 [sertraline]
GP IIb/IIIa (mean) log fluorescence intensity [1, 10]: 479 | GP IIb/IIIa (peak) log fluorescence intensity [1, 10]: 418 | GP IIb/IIIa (mean) log fluorescence intensity [1, 11]: 476 | GP IIb/IIIa (peak) log fluorescence intensity [1, 11]: 437 | GP IIb/IIIa (mean) log fluorescence intensity [1, 12]: 498 | GP IIb/IIIa (peak) log fluorescence intensity [1, 12]: 437 | GP IIb/IIIa (mean) log fluorescence intensity [1, 13]: 252 | GP IIb/IIIa (peak) log fluorescence intensity [1, 13]: 266 | GP IIb/IIIa (mean) log fluorescence intensity [1, 14]: 230 | GP IIb/IIIa (peak) log fluorescence intensity [1, 14]: 244 | GP IIb/IIIa (mean) log fluorescence intensity [1, 15]: 198 | GP IIb/IIIa (peak) log fluorescence intensity [1, 15]: 217 | GPIIb/IIIa expression (FIG. 1), in words [1, 9]: dose dependent decrease in the expression | GPIIb/IIIa expression (FIG. 7), in words [1]: striking decreases in expression | percent of platelet aggregation (FIGS. 2 and 3), in words ([2]; PRP, healthy volunteer, induced with ADP or collagen, sertraline 18.1, 44.7 or 85.3 ng/ml): decreases with increasing amounts of sertraline | platelet aggregation in PRP (FIGS. 5 and 6), in words ([2]; PRP): decrease in platelet aggregation | ADP-, and collagen-induced platelet aggregation in plasma (in vitro), in words ([2]; healthy controls and patients with coronary artery disease, including those on aspirin): Dose-dependent inhibition

From US6552014B2, “Methods of inhibiting platelet activation with selective serotonin reuptake inhibitors” (HeartDrug Research, L.L.C., priority 1999, dated 2003)
